# Reference: PubChem BioAssay AID652222 (The Scripps Research Institute Molecular Screening Center, 2013)
# pIC50: −log10 of the molar value.
# Target: Serine/threonine-protein phosphatase PP1-alpha catalytic subunit (Homo sapiens) (UniProt P62136)
# Assay: dose-dependent PP1alpha phosphatase inhibition – biochemical, fluorescence, OMFP substrate, set 1, dose response (AID 652222)
# Conditions: purified PP1alpha, OMFP dephosphorylation
# Sequence of Serine/threonine-protein phosphatase PP1-alpha catalytic subunit (Homo sapiens) (P62136 whole entry, looked up): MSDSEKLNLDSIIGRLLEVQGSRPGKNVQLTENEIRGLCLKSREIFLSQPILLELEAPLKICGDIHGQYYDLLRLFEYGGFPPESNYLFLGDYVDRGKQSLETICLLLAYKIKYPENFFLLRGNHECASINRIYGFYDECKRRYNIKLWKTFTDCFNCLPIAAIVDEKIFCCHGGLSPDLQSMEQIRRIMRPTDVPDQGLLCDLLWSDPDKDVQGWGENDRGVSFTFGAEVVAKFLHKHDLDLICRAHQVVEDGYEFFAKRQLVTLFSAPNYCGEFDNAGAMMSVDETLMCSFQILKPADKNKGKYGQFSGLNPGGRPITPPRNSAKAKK
row,pIC50,SMILES
1,5.95,CN1CCN(C(c2ccc3cccnc3c2O)c2ncccc2C(F)(F)F)CC1 (stereo not drawn)
2,5.84,CC1CCN(C(c2ccccn2)c2cc(Cl)c3cccnc3c2O)CC1 (stereo not drawn)
3,5.90,COc1ccnc(C(c2ccc3cccnc3c2O)N2CCN(C)CC2)c1 (stereo not drawn)
4,6.08,CN1CCN(C(c2ccc(C(F)(F)F)cn2)c2ccc3cccnc3c2O)CC1 (stereo not drawn)
5,5.86,CC(C)(C)OC(=O)N1CCN(C(c2ccccn2)c2cc(Cl)c3cccnc3c2O)CC1 (stereo not drawn)
6,5.91,Oc1c(C(c2ccccn2)N2CCC(Cc3ccccc3)CC2)cc(Cl)c2cccnc12 (stereo not drawn)
7,5.60,CN1CCC(NC(c2ccccn2)c2ccc3cccnc3c2O)CC1 (stereo not drawn)
8,5.84,Cc1ccc2ccc(C(c3ccccn3)N3CCN(C)CC3)c(O)c2n1 (stereo not drawn)
9,5.05,COc1cccc(C(c2ccc3cccnc3c2O)N2CCN(C)CC2)n1 (stereo not drawn)
10,5.85,Oc1c(C(c2ccccn2)N2CCCC2)ccc2cccnc12 (stereo not drawn)
11,5.62,Oc1c(C(c2ccccn2)N2CCN(c3ccccc3F)CC2)cc(Cl)c2cccnc12 (stereo not drawn)
12,5.83,Cc1cccnc1C(c1ccc2cccnc2c1O)N1CCN(C)CC1 (stereo not drawn)
13,5.77,COc1ccc(C(c2ccc3cccnc3c2O)N2CCN(C)CC2)nc1 (stereo not drawn)
14,5.57,CN1CCN(C(c2ncccn2)c2ccc3cccnc3c2O)CC1 (stereo not drawn)
15,5.87,Cc1ccc(C(c2ccc3cccnc3c2O)N2CCN(C)CC2)nc1 (stereo not drawn)
16,5.87,Oc1c(C(NC2CCCCC2)c2ccccn2)ccc2cccnc12 (stereo not drawn)
17,5.60,Cc1cccc(C(c2ccc3cccnc3c2O)N2CCN(C)CC2)n1 (stereo not drawn)
18,5.74,Cc1ccnc(C(c2ccc3cccnc3c2O)N2CCN(C)CC2)c1 (stereo not drawn)
